The values below come from ChEMBL document CHEMBL3085630, “Thienopyrimidine bisphosphonate (ThPBP) inhibitors of the human farnesyl pyrophosphate synthase: optimization and characterization of the mode of inhibition” (J Med Chem, 2013).

Calls of active or inactive are those of the source. The rule behind the calls is not given here.

One experiment concerns Hydroxyapatite. Put plainly: Binding affinity to bone mineral hydroxyapatite at 50 uM after 5 mins by NMR-spectroscopic analysis.
Experiment [1] has as its target T1, Farnesyl pyrophosphate synthase (Homo sapiens, UniProt P14324).
T1 sequence (P14324 whole entry): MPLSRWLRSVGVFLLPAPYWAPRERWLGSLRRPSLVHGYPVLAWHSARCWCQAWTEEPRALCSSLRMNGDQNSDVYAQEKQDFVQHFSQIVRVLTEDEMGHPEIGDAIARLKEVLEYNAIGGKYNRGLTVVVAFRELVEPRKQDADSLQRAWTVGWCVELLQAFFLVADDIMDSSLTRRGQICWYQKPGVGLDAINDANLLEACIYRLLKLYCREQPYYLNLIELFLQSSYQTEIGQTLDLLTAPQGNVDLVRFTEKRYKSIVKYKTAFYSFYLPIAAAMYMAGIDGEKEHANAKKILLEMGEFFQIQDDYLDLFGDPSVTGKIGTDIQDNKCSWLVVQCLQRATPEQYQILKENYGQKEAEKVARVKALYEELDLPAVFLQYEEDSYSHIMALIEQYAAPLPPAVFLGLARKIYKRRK
The experiment is described as follows: Inhibition of human recombinant FPPS using GPP/[3H]IPP as substrate incubated for 10 mins prior to substrate addition by scintillation counting analysis.

In experiment [2] the target is T1, Farnesyl pyrophosphate synthase. Put plainly: Inhibition of human recombinant FPPS using GPP/[3H]IPP as substrate incubated for 10 mins prior to substrate addition measured after 8 mins by scintillation counting analysis.
In experiment [3] the target is T2, Farnesyl pyrophosphate synthase (Homo sapiens) (UniProt P14324).
T2 sequence (whole entry): T1 sequence (P14324 whole entry)
The experiment is described as follows: Inhibition of human recombinant FPPS using GPP/[3H]IPP as substrate at 100 nM incubated for 10 mins prior to substrate addition measured after 8 mins by scintillation counting analysis.

As for `O=P(O)(O)C(Nc1ncnc2sc(-c3ccc(C4CC4)cc3)cc12)P(=O)(O)O`, the outcome in the experiment on Hydroxyapatite was Active. For the same molecule, the IC50 (usually the concentration at which inhibition is half-maximal) in experiment [1] stood at 115 nM; in experiment [2] it was 39 nM.

As for `O=P(O)(O)C(Nc1ncnc2sc(-c3cccc(C(F)(F)F)c3)cc12)P(=O)(O)O`, in experiment [3], the inhibition (as a rule, the drop in the measured response relative to a control, in per cent) was determined as 30%.

For `CC(C)Oc1ccc(-c2cc3c(NC(P(=O)(O)O)P(=O)(O)O)ncnc3s2)cc1`, the IC50 in experiment [2] came out at 200 nM.

Consider `O=P(O)(O)C(Nc1ncnc2sc(-c3cccc4[nH]ncc34)cc12)P(=O)(O)O`, for which the inhibition in experiment [3] was less than 20%.

Take `O=P(O)(O)C(Nc1ncnc2sc(-c3ccc4[nH]ncc4c3)cc12)P(=O)(O)O`: the inhibition in experiment [3] is less than 20%.

Regarding `O=P(O)(O)C(Nc1ncnc2sc(-c3ccc(OC4CC4)cc3)cc12)P(=O)(O)O`, the outcome in the experiment with Hydroxyapatite was Active.

Turning to `COc1ccc(-c2cc3c(NC(P(=O)(O)O)P(=O)(O)O)ncnc3s2)cc1`, in experiment [1], the IC50 amounted to 440 nM.

`O=P(O)(O)C(Nc1ncnc2sc(-c3ccc(C(F)(F)F)cc3)cc12)P(=O)(O)O`: the outcome in the experiment with Hydroxyapatite was Active. Besides, the inhibition in experiment [3] amounted to 73%.

On to `Cc1noc(C)c1-c1cc2c(NC(P(=O)(O)O)P(=O)(O)O)ncnc2s1`, for which the inhibition in experiment [3] is less than 20%.

For the molecule `O=P(O)(O)C(O)(Cc1cccnc1)P(=O)(O)O`, the outcome in the experiment on Hydroxyapatite was Active.

Turning to `O=P(O)(O)C(Nc1ncnc2sc(-c3ccc(C4CC4(F)F)cc3)cc12)P(=O)(O)O` (centres undefined), in experiment [1], the IC50 was determined as 140 nM.
